US20060009425A1, “Oral formulations of paricalcitol” (priority 2004, published 2006)
Like-named read-outs stand apart in the source and are kept apart here.

How the values were obtained:
[1] = Single and multiple dose pharmacokinetics, 4 μg QD vs 8 μg TIW, subjects in general good health (Example 5); format: in vivo, human; conditions: for AUC(0-inf) / Cmax / Tmax / half-life / AUC(0-t): human, plasma, oral; for half-life: harmonic mean ± pseudo-standard deviation
Method: Methodology: This Phase I, multiple-dose, open-label, randomized study was conducted according to an […], crossover design. Subjects were randomized into two sequence groups of equal size of Regimens A and B. Subjects received the following regimens: • Regimen A: One 4 μg paricalcitol soft elastic capsule on Study Day 1 and one 4 μg paricalcitol capsule QD for 11 doses on Study Days 3 through 13. • Regimen B: Two 4 μg paricalcitol soft elastic capsules three times a week (8 μg TIW) for 6 doses on Study Days 1, 3, 5, 8, 10, and 12.
The paricalcitol dose was administered at approximately 0700, 30 minutes after breakfast was served on the dosing days of each period. Each dose was administered orally with 240 mL of water. A washout interval of at least 7 days separated the dose of period 1 and dose of period 2.
Seven (7) mL blood samples (to yield at least 3 mL of plasma) were obtained by venipuncture for paricalcitol plasma concentration into appropriately labeled EDTA-containing collection tubes. The blood sampling was as shown below in Table 10.
For Regimen B, a blood sample was collected 48 hours after the Study Day 5 dose (Study Day 7) and immediately prior to dosing (0 hour) on Study Day 10.
Plasma concentrations of paricalcitol were determined using a validated liquid chromatography-tandem mass spectrometric assay method at Abbott Laboratories, Abbott Park, Ill. (a proprietary method of Abbott Laboratories). The lower limit of quantification (abbreviated as “LOQ”) of paricalcitol was 0.02 ng/mL using a 0.6 mL plasma sample.
Pharmacokinetics: The following pharmacokinetic parameter values were determined using standard non-compartmental methods: maximum observed plasma concentration (Cmax), time to Cmax(Tmax), terminal phase elimination rate constant (β), terminal elimination half-life (t1/2), area under the plasma concentration vs. time curve extrapolated to infinite time (AUC0-∞) following the first dose and area under the plasma concentration vs. time curve over the dose interval at steady state (AUC0-τ; also referred to as AUC0-48 or AUC0-24 as appropriate). Accumulation index (AI) and degree of fluctuation (DFL) were also evaluated at steady state.
Statistical Methods: An analysis of variance (ANOVA) was performed to compare single- and multiple-dose pharmacokinetics of paricalcitol. The model included effects for sequence, subject nested within sequence, day (i.e., first dose or last dose), and sequence by day interaction. The effect for subject was random, while all other effects were fixed. The analyzed variables include Tmax, β, and the logarithms of AUC and Cmax. The AUC value for the single dose was AUC0-∞, while the AUC for the multiple dose was AUC0-24. The trough concentrations were analyzed using the same ANOVA model described above to address the issue of steady state attainment for the QD regimen.
The logarithmic transformation was also used for AUC. The model had effects for sequence, subject nested within sequence, period and regimen. The effect for subject was random, while all other effects were fixed. […] Study Day 1 Tmax, β, dose-normalized Cmax and AUC0-∞ from Regimen A and Regimen B were analyzed using the same ANOVA model. […] This same model again was used to compare Regimen A and Regimen B with respect to AI values.

iPTH = test: Combined Phase 3 studies, iPTH reduction (Examples 11, 12); format: in vivo, human; conditions: for iPTH, Mean Change from Baseline (SE) / iPTH, Mean Percent Change from Baseline (SE): last on-treatment
Method: In this example, three double-blind, placebo-controlled, multicenter studies were conducted to evaluate the safety and efficacy of paricalcitol capsule in CKD stage 3-4 subjects. Major inclusion included eGFR (MDRD formula) 15-60 mL/min/1.73 m^2, iPTH ≧150 pg/mL. A total of 220 subjects across the 3 studies were randomized and received paricalcitol capsule or placebo three times weekly (TIW, N=145) or daily (QD, N=75) for 24 weeks. […] The initial dose was 2 mcg (TIW) or 1 mcg (QD) for baseline iPTH ≦500 pg/mL and 4 mcg (TIW) or 2 mcg (QD) for baseline iPTH >500 pg/mL. Doses were titrated based on serum Ca, P and iPTH results that were measured every 2 weeks, dose increases occurred every 4 weeks.
In this example, paricalcitol capsules were evaluated in 3 double-blind, placebo-controlled multicenter studies in CKD stage 3-4 subjects with 2° HPT; 2 of these studies were conducted with TIW dosing and 1 was done with QD dosing. Subjects with eGFR (MDRD formula) 15-60 ml/min/1.73 m^2, iPTH ≧150 pg/mL, serum Ca 8.0-10.0 mg/dL and PO4≦5.2 mg/dL were randomized 1:1 and treated with paricalcitol capsule or placebo for 24 weeks. A total of 145 subjects used TIW regimen (paricalcitol: 72; placebo: 73) and 75 subjects (paricalcitol: 35; placebo: 40) used QD regimen. After the initial doses, doses were titrated based on serum Ca, P and iPTH results that were measured every 2 weeks; dose increases occurred once every 4 weeks and decreases every 2 weeks. Dosing administrations are shown below in Table 18.

[2] = Regimen A 4 μg QD, Study Day 12
[3] = Regimen A 4 μg QD, Study Day 13
[4] = Regimen B 8 μg TIW, Study Day 1
[5] = Regimen B 8 μg TIW, Study Day 12 and 13
[6] = 4 ug, Regimen A 4 μg QD, Study Day 1
[7] = 4 ug, Regimen A 4 μg QD, Study Day 12
[8] = 4 ug, Regimen A 4 μg QD, Study Day 13
[9] = 8 ug, Regimen B 8 μg TIW, Study Day 1
[10] = 8 ug, Regimen B 8 μg TIW, Study Day 12 and 13

C[C@H](/C=C/[C@H](C)C(C)(C)O)[C@H]1CC[C@H]2/C(=C/C=C3C[C@@H](O)C[C@H](O)C3)CCC[C@]12C [Paricalcitol, 19-nor-1α,3β,25-trihydroxy-9,10-secoergosta-5(Z); 7(E),22(E)-triene]
steady state reached by ([1]; 4 μg QD or 8 μg TIW): ≤ 7 Study Day | CL/F ([1]; Regimen A 4 μg QD, Study Day 1): 3.95 ± 1.19^Φ L/h | Vdβ/F ([1]; Regimen A 4 μg QD, Study Day 1): 38.9 ± 18.7^Φ L | AI [1, 2]: 1.759 ± 1.829 | CL/F [1, 2]: 4.33 ± 2.08 L/h | Cmin [1, 2]: 0.005 ± 0.010 ng/mL | DFL [1, 2]: 2.584 ± 0.889 | Vdβ/F [1, 2]: 44.9 ± 23.0^ε L | AI [1, 3]: 1.483 ± 1.442 | AUC/Dose (AUC0-24/Dose) [1, 3]: 0.226 ± 0.049 ng·h/mL/µg | CL/F [1, 3]: 4.65 ± 1.16 L/h | Cmin [1, 3]: 0.001 ± 0.005 ng/mL | DFL [1, 3]: 2.761 ± 0.761 | Vdβ/F [1, 3]: 43.7 ± 17.9^ε L | CL/F [1, 4]: 3.65 ± 1.61 L/h | Vdβ/F [1, 4]: 41.0 ± 12.7 L | AI [1, 5]: 1.000 ± 0.312 | CL/F [1, 5]: 3.79 ± 1.07 L/h | Cmin [1, 5]: 0.000 ± 0.000 ng/mL | DFL [1, 5]: 4.637 ± 1.397 | Vdβ/F [1, 5]: 42.1 ± 28.7^δ L | AUC(0-inf) [1, 6]: 1.11 ± 0.342 ng·h/mL | Cmax [1, 6]: 0.1 ± 0.033 ng/mL | Tmax [1, 6]: 4.8 ± 2.8 h | half-life [1, 6]: 6.2 ± 2.1 h | AUC(0-t) ([1]; 4 ug, Regimen A 4 μg QD, Study Day 1, read-out: AUC0-t): 0.701 ± 0.339 ng·h/mL | Cmax [1, 7]: 0.112 ± 0.031 ng/mL | Tmax [1, 7]: 4.4 ± 2.6 h | half-life [1, 7]: 6.8 ± 3.1 h | AUC(0-t) ([1]; 4 ug, Regimen A 4 μg QD, Study Day 12, read-out: AUC0-τ (AUC0-24)): 1.07 ± 0.359 ng·h/mL | Cmax [1, 8]: 0.105 ± 0.035 ng/mL | Tmax [1, 8]: 4.5 ± 1.6 h | half-life [1, 8]: 5.8 ± 2.5 h | AUC(0-t) ([1]; 4 ug, Regimen A 4 μg QD, Study Day 13, read-out: AUC0-τ (AUC0-24)): 0.904 ± 0.196 ng·h/mL | AUC(0-inf) [1, 9]: 2.55 ± 1.08 ng·h/mL | Cmax [1, 9]: 0.2 ± 0.062 ng/mL | Tmax [1, 9]: 4.4 ± 1.4 h | half-life [1, 9]: 7.3 ± 3.2 h | AUC(0-t) ([1]; 8 ug, Regimen B 8 μg TIW, Study Day 1, read-out: AUC0-t): 2.05 ± 0.881 ng·h/mL | Cmax [1, 10]: 0.217 ± 0.077 ng/mL | Tmax [1, 10]: 4.3 ± 2.6 h | half-life [1, 10]: 6.8 ± 2.2 h | AUC(0-t) ([1]; 8 ug, Regimen B 8 μg TIW, Study Day 12 and 13, read-out: AUC0-τ (AUC0-48)): 2.26 ± 0.566 ng·h/mL | dose proportionality of pharmacokinetics ([1]; single dose and steady state over the studied dose range): dose proportional | 30% mean iPTH reduction by (iPTH; 3 Phase 3 studies combined): ≤ 9 Week | efficacy in PTH suppression (iPTH; 24-week pivotal Phase 3 studies, CKD Stage 3 and 4 with 2° HPT): > 90% | subjects with 2 consecutive 30% decreases in iPTH (iPTH; 92/101, 3 Phase 3 studies combined): 91% | 2 consecutive 30% iPTH reduction from baseline, subjects n (%) (iPTH; N = 101, 3 Phase 3 studies combined): 92 (91%) | iPTH, Mean Last On-Treatment Value (iPTH; QD Regimen, N = 35): 128 pg/mL | iPTH, Mean Change from Baseline (SE) (iPTH; QD Regimen): −131 (16.7) pg/mL | iPTH, Mean Percent Change from Baseline (SE) (iPTH; QD Regimen): −50% (5.0) | 2 consecutive 30% iPTH reduction from baseline (iPTH; QD regimen): 91% | 30% mean iPTH reduction by (iPTH; QD regimen): ≤ 7 Week | 2 consecutive 30% iPTH reduction from baseline (iPTH; QD regimen, listed as paricalcitol): 91% | iPTH, Mean Last On-Treatment Value (iPTH; TIW Regimen, N = 69): 179 pg/mL | iPTH, Mean Change from Baseline (SE) (iPTH; TIW Regimen): −90 (10.7) pg/mL | iPTH, Mean Percent Change from Baseline (SE) (iPTH; TIW Regimen): −33% (3.6) | 2 consecutive 30% iPTH reduction from baseline (iPTH; TIW regimen): 91% | 30% mean iPTH reduction by (iPTH; TIW regimen): ≤ 9 Week | 2 consecutive 30% iPTH reduction from baseline (iPTH; TIW regimen, listed as paricalcitol): 91%
